Measured values as given in paper PMC6527222 (PLoS ONE, 2019).
Values joined by “and” are separate entries in the source; they are usually repeats but may differ in a detail not shown here. Identical values can stand only once. Like-named read-outs stand apart in the source and are kept apart here.

How the values were obtained:
[1] = system: JB6 P+ cells; assay: SRB cytotoxicity assay; type: cell-based, mouse; settings: 72 hr; NT = no toxicity at any concentration tested
Procedure: 96-well plates were seeded with 3x10^3 JB6 P+ cells per well and allowed to attach overnight. […] Cell viability was determined using Sulforhodamine B (SRB) assay from Sigma-Aldrich according to the manufacturer’s protocol. Cellular protein content was measured using a Bio-Tek μQuant plate reader with KCJunior software.
Concentration-response curves were normalized so that the EGF positive control on each 96-well plate was set to 100% and the control wells on each plate were set to 0%. Toxicity assays (SRB and MTS) were normalized so that the control on each plate represented 100% viability. Normalization allowed for comparison of data over a range of JB6 P+ cell cultures, passages, and experimental time for the shRNA studies, as well as control for variation in the EGF response, and importantly allowed for a direct comparison to all concentration-response experiments including the toxicity assays. […] All group sizes were determined via previous studies to provide statistically meaningful data. In the soft agar assays, key results were repeated with different JB6 P+ cells to confirm the results. Similarly, the shRNA studies were conducted with three independent concentration-response curves with different JB6 P+ cell stocks. […] For two sample comparisons a t-test was utilized, and when comparing multiple samples a One-, Two-, or Three-Factor ANOVA followed by Tukey-Kramer post hoc test was utilized depending on the data. For all tests, statistical difference was donated when p < 0.05.
The IΔ2*PSD is expressed in x-axis units (log [M]) as is an IC50 and it represents the first concentration where it is expected to observe a statistical decrease in the measured signal.
Using the formula provided by GraphPad Prism or a straight line for the point-to-point graphs, the X-axis value for point Y was determined. The error is ascribed to this measurement via adding and subtracting the pooled standard deviation (PSD) to/from point Y generating point Y ± PSD. The two new points were then transformed to the X-axis units as was done for point Y creating an asymmetric error in sigmoidal plots. When the error was asymmetric, the larger error value was chosen to err on the conservative side. See S1 Fig for a pictoral explination of the method. The data is presented as IΔ2*PSD ± error.

[2] = system: JB6 P+ cells; assay: Modified seven-day soft agar assay in shRNA lentivirus infected JB6 P+ cells; type: cell-based, mouse; settings: for IC50: Mus musculus
Procedure: Knockdown of the β2-AR via the Adrb2 shRNA lentivirus was examined via seeding 1x10^4 JB6 P+ cells/well of a 6-well plate in standard growth media (see above). 24 hr after seeding, the growth media was removed from attached cells and replaced with 2 ml EMEM containing 4% heat-inactivated FBS without antibiotics and […] polybrene. 1.5 ml lentiviral shRNA stocks of either Adrb2 or scrambled control were added to appropriate wells and plates were centrifuged at 1,000 g at room temperature for 1 hr. Following centrifugation, media was replaced with 3 ml EMEM lacking antibiotics and grown at 37°C. After 2, 3, 7, and 10 days of growth, cells were trypsinized, collected and centrifuged at 300g for 5 min. Cells were washed with 1 ml PBS, and RNA was extracted using Qiagen’s RNeasy Mini kit. RNA was reverse transcribed into cDNA using Applied Biosystems cDNA reverse transcription kit (Invitrogen) and stored at -20°C for future use.
β2-AR shRNA lentivirus infected JB6 P+ cells were utilized in modified anchorage-independent growth assays in soft agar. The procedure was shortened to seven days because the shRNA-mediated β2-AR knockdown persisted up to ten days. Infection of the cells occurred as described in the verification of effective shRNA-mediated β2-AR knockdown, and the cells were grown for three days, then they were added to the agar as described in the anchorage-independent growth assays in soft agar section. The colonies were counted after seven days in culture; thus, matching the ten days of β2-AR knockdown.

SMILES: COc1ccccc1OCCNCC(O)COc1cccc2[nH]c3ccccc3c12 (stereo not shown) [Carvedilol]
- SRB Assay Log IΔ2*PSD [1]: -4.89 ± 0.09 log [M]
- IC50 ([2]; 168 h, independent experiments 1-3, seven days, read-out: ardb2 shRNA Mean logIC50 (converted)): 718 nM
- IC50 ([2]; 168 h, scrambled control shRNA, three experiments combined (Fig 6B), seven days, read-out: LogIC50 (converted)): 813 nM
- IC50 ([2]; 168 h, β2-AR-targeted shRNA, three experiments combined (Fig 6B), seven days, read-out: LogIC50 (converted)): 1000 nM
- IC50 ([2]; line Mean, read-out: Scrambled shRNA Mean logIC50, mean of three experiments (converted)): 714 nM
- IC50 ([2]; line Mean, read-out: ardb2 shRNA Mean logIC50, mean of three experiments (converted)): 979 nM
- ardb2 shRNA Mean logIC50 ([2]; independent experiments 1-3, seven days): -5.965 log [M] and -5.917 log [M]
